Assay results as given in US12643855B2, “Fluorogenic dimer compound, useful as a probe for detection of endogenous receptors” (UNIVERSITE DE STRASBOURG, priority 2020, dated 2026).
Blank lines part the entries; values can stand above or below the compound they belong to.

Legend:
Type in all cases: physicochemical
[1] = Absorption and fluorescence spectroscopy of mCy5.5-PEG and dCy5.5-PEG in solvents of different polarities (Example 1); conditions: for λem, position of the emission maximum: excitation 630 nm, 20° C.; for Difference in QY between organic solvents and water (turn-on response): QY in organic solvents vs water; for Fluorescence maxima: in organic solvents
Source text: All fluorescence spectra were corrected for instrumental effects. […] To confirm the formation of the intramolecular dimer, the absorption spectra of two dyes were compared. […] This new band can be assigned to the non-fluorescent intramolecular dimer of the H-aggregate type, which is highly favored in aqueous medium. […] As a consequence, dCy5.5-PEG presented excellent fluorogenic properties, with up to 140-fold higher QY in organic solvents than in water. […] As the absorption spectrum of dCy5.5-PEG in the open form (in MeOH) is the same as that of the cyanine 2, the extinction coefficient of the dimer should be ca double of the monomer. The extinction coefficient for the cyanine 2, was measured to be 222 000 M^−1 cm^−1 in MeOH, which allows estimation of the extinction coefficient for the dimer dCy5.5-PEG: 222 000 M^−1 cm^−1×2=444 000 M^−1 cm^−1. Then, given its strong QY (56% in DMF), dCy5.5-PEG appears to be one of the brightest fluorogenic NIR dyes reported to date.

[2] = Absorption and fluorescence spectroscopy, DY647 dimers (Examples 2 and 3); conditions: for λem, position of the emission maximum: excitation 600 nm; for Fluorescence turn-on: ratio of quantum yields in EtOH to that in water (200 nM), DY647 dimers
Procedure: Absorption spectra were recorded on a Shimadzu UV-2700i spectrophotometer and fluorescence spectra on a Horiba Fluoromax 4 spectrofluorometer. Fluorescence emission spectra were systematically recorded at 600 nm excitation wavelength at 20° C. All fluorescence spectra were corrected for instrumental effects. Fluorescence quantum yields (QY) were measured using DID in MeOH as a reference (QY=33%).^[ref] Turn-ON were calculated as a ratio of QY of compounds in EtOH to QY in water. • Ref I. Texier, et al., J. Biomed. Opt. 2009, 14, 054005.

[3] = Absorption and fluorescence spectroscopy, Cy5.5 dimers (Examples 2 and 3); conditions: for λem, position of the emission maximum: excitation 630 nm
Procedure: (§1) Absorption spectra were recorded on a Shimadzu UV-2700i spectrophotometer and fluorescence spectra on a Horiba Fluoromax 4 spectrofluorometer. Fluorescence emission spectra were systematically recorded at 630 nm excitation wavelength at 20° C. All fluorescence spectra were corrected for instrumental effects. Fluorescence quantum yields (QY) were measured using Rhodamine 800 in EtOH as a reference (QY=25%).^[ref] Turn-ON were calculated as a ratio of OY of compounds in EtOH to OY in water. • Ref A. Alessi, M. Salvalaggio, G. Ruzzon, J. Lumin. 2013, 134, 385-389. DY647 Dimers
as §1, with “QY” for “OY”

Extinction coefficient ([1]; in MeOH): 222 000 M^−1 cm^−1
Compound: COCCOCCOCCOCCOCCOCCOCCOCC[N+]1=C(/C=C/C=C/C=C2/N(CCCCCC(=O)O)c3ccc4ccccc4c3C2(C)C)C(C)(C)c2c1ccc1ccccc21.[I-] [cyanine 2, 2-((1E,3E,5E)-5-(3-(5-carboxypentyl)-1,1-dimethyl-1,3-dihydro-2H-benzo[e]indol-2-ylidene)penta-1,3-dien-1-yl)-1,1-dimethyl-3-(2,5,8,11,14,17,20,23-octaoxapentacosan-25-yl)-1H-benzo[e]indol-3-ium iodide]

Compound: COCC[N+]1=C(/C=C/C=C/C=C2/N(CCCCCC(=O)NCCOCCOCCNC(=O)CCC(=O)NCCCC[C@H](NC(=O)CCC(=O)NCCOCCOCCNC(=O)CCCCCN3/C(=C/C=C/C=C/C4=[N+](CCOC)c5ccc(S(=O)(=O)O)cc5C4(C)C)C(C)(C)c4cc(S(=O)(=O)[O-])ccc43)C(=O)NCCOCCOCCNC(=O)CCC(=O)NCCOCCOCCNC(=O)CCC(=O)OC(C)(C)C)c3ccc(S(=O)(=O)[O-])cc3C2(C)C)C(C)(C)c2cc(S(=O)(=O)O)ccc21 [B]
QY, fluorescence quantum yield ([2]; Acetone): 0.4% | λabs, position of the absorption maximum ([2]; Acetone): 660 nm | λem, position of the emission maximum ([2]; Acetone): 683 nm | QY, fluorescence quantum yield ([2]; Acetonitrile): 6.6% | λabs, position of the absorption maximum ([2]; Acetonitrile): 658 nm | λem, position of the emission maximum ([2]; Acetonitrile): 677 nm | QY, fluorescence quantum yield ([2]; EtOH): 35.1% | λabs, position of the absorption maximum ([2]; EtOH): 653 nm | λem, position of the emission maximum ([2]; EtOH): 673 nm | QY, fluorescence quantum yield ([2]; H2O): 7.6% | λabs, position of the absorption maximum ([2]; H2O): 648 nm | λem, position of the emission maximum ([2]; H2O): 666 nm | QY, fluorescence quantum yield ([2]; MeOH): 33.0% | λabs, position of the absorption maximum ([2]; MeOH): 650 nm | λem, position of the emission maximum ([2]; MeOH): 673 nm | Fluorescence turn-on [2]: 4.6

Compound: COCC[N+]1=C(/C=C/C=C/C=C2/N(CCCCCC(=O)NCCCC[C@H](NC(=O)CCCCCN3/C(=C/C=C/C=C/C4=[N+](CCOC)c5ccc(S(=O)(=O)O)cc5C4(C)C)C(C)(C)c4cc(S(=O)(=O)[O-])ccc43)C(=O)NCCOCCOCCNC(=O)CCC(=O)NCCOCCOCCNC(=O)CCC(=O)OC(C)(C)C)c3ccc(S(=O)(=O)[O-])cc3C2(C)C)C(C)(C)c2cc(S(=O)(=O)O)ccc21 [A]
QY, fluorescence quantum yield ([2]; Acetone): 3.4% | λabs, position of the absorption maximum ([2]; Acetone): 661 nm | λem, position of the emission maximum ([2]; Acetone): 684 nm | QY, fluorescence quantum yield ([2]; Acetonitrile): 19.8% | λabs, position of the absorption maximum ([2]; Acetonitrile): 656 nm | λem, position of the emission maximum ([2]; Acetonitrile): 678 nm | QY, fluorescence quantum yield ([2]; EtOH): 31.1% | λabs, position of the absorption maximum ([2]; EtOH): 654 nm | λem, position of the emission maximum ([2]; EtOH): 676 nm | QY, fluorescence quantum yield ([2]; H2O): 4.1% | λabs, position of the absorption maximum ([2]; H2O): 647 nm | λem, position of the emission maximum ([2]; H2O): 671 nm | QY, fluorescence quantum yield ([2]; MeOH): 28.2% | λabs, position of the absorption maximum ([2]; MeOH): 651 nm | λem, position of the emission maximum ([2]; MeOH): 673 nm | Fluorescence turn-on [2]: 7.6

Compound: C#CCNC(=O)CCNC(=O)CCC(=O)NCCOCCOCCNC(=O)CCC(=O)NCCOCCOCCNC(=O)CCC(=O)NCCOCCOCCNC(=O)CCCCCN1/C(=C/C=C/C=C/C2=[N+](CCOCCOCCOCCOCCOCCOCCOCCOC)c3ccc4ccccc4c3C2(C)C)C(C)(C)c2c1ccc1ccccc21.O=C([O-])C(F)(F)F [mCy5.5-PEG]
QY, fluorescence quantum yield ([1]; 1,4-Dioxane): 59% | λabs, position of the absorption maximum ([1]; 1,4-Dioxane): 689 nm | λem, position of the emission maximum ([1]; 1,4-Dioxane): 712 nm | QY, fluorescence quantum yield ([1]; DMF): 50% | λabs, position of the absorption maximum ([1]; DMF): 686 nm | λem, position of the emission maximum ([1]; DMF): 709 nm | QY, fluorescence quantum yield ([1]; EtOH): 34% | λabs, position of the absorption maximum ([1]; EtOH): 686 nm | λem, position of the emission maximum ([1]; EtOH): 709 nm | QY, fluorescence quantum yield ([1]; MeOH): 32% | λabs, position of the absorption maximum ([1]; MeOH): 681 nm | λem, position of the emission maximum ([1]; MeOH): 705 nm | Difference in QY between organic solvents and water (turn-on response) [1]: < 2.7 fold | QY, fluorescence quantum yield ([1]; Water): 22% | λabs, position of the absorption maximum ([1]; Water): 679 nm | λem, position of the emission maximum ([1]; Water): 700 nm | Fluorescence maxima [1]: around 710 nm | Absorption maxima ([1]; in water and in MeOH): around 680 nm

Compound: COCCOCCOCCOCCOCCOCCOCCOCC[N+]1=C(/C=C/C=C/C=C2/N(CCCCCC(=O)NCCOCCOCCNC(=O)CCC(=O)NCCCC[C@H](NC(=O)CCC(=O)NCCOCCOCCNC(=O)CCCCCN3/C(=C/C=C/C=C/C4=[N+](CCOCCOCCOCCOCCOCCOCCOCCOC)c5ccc6ccccc6c5C4(C)C)C(C)(C)c4c3ccc3ccccc43)C(=O)NCCOCCOCCNC(=O)CCC(=O)NCCOCCOCCNC(=O)CCC(=O)OC(C)(C)C)c3ccc4ccccc4c3C2(C)C)C(C)(C)c2c1ccc1ccccc21 [Compound 5]
QY, fluorescence quantum yield ([3]; Acetone): 25.0% | λabs, position of the absorption maximum ([3]; Acetone): 683 nm | λem, position of the emission maximum ([3]; Acetone): 708 nm | QY, fluorescence quantum yield ([3]; Acetonitrile): 22.7% | λabs, position of the absorption maximum ([3]; Acetonitrile): 681 nm | λem, position of the emission maximum ([3]; Acetonitrile): 703 nm | QY, fluorescence quantum yield ([3]; EtOH): 26.5% | λabs, position of the absorption maximum ([3]; EtOH): 685 nm | λem, position of the emission maximum ([3]; EtOH): 708 nm | QY, fluorescence quantum yield ([3]; H2O): 0.4% | λabs, position of the absorption maximum ([3]; H2O): 630 nm | λem, position of the emission maximum ([3]; H2O): 708 nm | QY, fluorescence quantum yield ([3]; MeOH): 21.1% | λabs, position of the absorption maximum ([3]; MeOH): 682 nm | λem, position of the emission maximum ([3]; MeOH): 708 nm | Fluorescence turn-on ([3]; ratio of quantum yields in EtOH to that in water (200 nM), Cy5.5 dimers): 66

Compound: C#CCNC(=O)CCNC(=O)CCC(=O)NCCOCCOCCNC(=O)CCC(=O)NCCOCCOCCNC(=O)[C@H](CCCCNC(=O)CCC(=O)NCCOCCOCCNC(=O)CCCCCN1/C(=C/C=C/C=C/C2=[N+](CCOCCOCCOCCOCCOCCOCCOCCOC)c3ccc4ccccc4c3C2(C)C)C(C)(C)c2c1ccc1ccccc21)NC(=O)CCC(=O)NCCOCCOCCNC(=O)CCCCCN1/C(=C/C=C/C=C/C2=[N+](CCOCCOCCOCCOCCOCCOCCOCCOC)c3ccc4ccccc4c3C2(C)C)C(C)(C)c2c1ccc1ccccc21.O=C([O-])C(F)(F)F.O=C([O-])C(F)(F)F [dCy5.5-PEG]
QY, fluorescence quantum yield ([1]; 1,4-Dioxane): 28% | λabs, position of the absorption maximum ([1]; 1,4-Dioxane): 689 nm | λem, position of the emission maximum ([1]; 1,4-Dioxane): 718 nm | QY, fluorescence quantum yield ([1]; DMF): 56% | λabs, position of the absorption maximum ([1]; DMF): 685 nm | λem, position of the emission maximum ([1]; DMF): 709 nm | QY, fluorescence quantum yield ([1]; EtOH): 26% | λabs, position of the absorption maximum ([1]; EtOH): 686 nm | λem, position of the emission maximum ([1]; EtOH): 710 nm | QY, fluorescence quantum yield ([1]; MeOH): 26% | λabs, position of the absorption maximum ([1]; MeOH): 682 nm | λem, position of the emission maximum ([1]; MeOH): 705 nm | Difference in QY between organic solvents and water (turn-on response) [1]: up to 140 fold | QY, fluorescence quantum yield ([1]; Water): 0.4% | λabs, position of the absorption maximum ([1]; Water): 629 nm | λem, position of the emission maximum ([1]; Water): 700 nm | Fluorescence maxima [1]: around 710 nm | Extinction coefficient, estimation for the dimer ([1]; open form (in MeOH), double of cyanine 2): 444 000 M^−1 cm^−1
